Results taken from PMC6102536, “A Metabolism-Based Synergy for Total Coumarin Extract of Radix Angelicae Dahuricae and Ligustrazine on Migraine Treatment in Rats” (Molecules : A Journal of Synthetic Chemistry and Natural …, 2018).
Read-outs that look alike come from different tables or passages of the source.

Assays:
Assay in all cases: P450-Glo inhibition assay, recombinant CYP
Assay type in all cases: biochemical
CYP2D6 = molecular target: T1, CYP2D6 (Homo sapiens, UniProt P10635)
T1 construct: recombinant CYP450, commercial (Research Institute for Liver Diseases, Shanghai); P450-Glo Screening System (Promega)
T1 sequence (P10635 whole entry): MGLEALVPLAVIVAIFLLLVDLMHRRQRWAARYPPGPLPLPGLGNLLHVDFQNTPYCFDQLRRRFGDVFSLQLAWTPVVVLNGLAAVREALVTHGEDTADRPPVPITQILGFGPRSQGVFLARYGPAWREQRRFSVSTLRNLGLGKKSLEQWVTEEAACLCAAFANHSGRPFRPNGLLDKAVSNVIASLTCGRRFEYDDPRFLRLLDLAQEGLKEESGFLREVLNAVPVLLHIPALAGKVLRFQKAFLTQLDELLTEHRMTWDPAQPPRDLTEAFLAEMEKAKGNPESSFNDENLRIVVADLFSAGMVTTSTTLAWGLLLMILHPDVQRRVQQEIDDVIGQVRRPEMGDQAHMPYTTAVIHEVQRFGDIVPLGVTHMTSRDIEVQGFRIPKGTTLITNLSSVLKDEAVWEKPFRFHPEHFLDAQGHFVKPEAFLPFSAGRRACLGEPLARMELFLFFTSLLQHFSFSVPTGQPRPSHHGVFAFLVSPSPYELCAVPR

CYP2C19 = molecular target: T2, CYP2C19 (Homo sapiens, UniProt P33261)
T2 construct: recombinant CYP450, commercial (Research Institute for Liver Diseases, Shanghai); P450-Glo Screening System (Promega)
T2 sequence (P33261 whole entry): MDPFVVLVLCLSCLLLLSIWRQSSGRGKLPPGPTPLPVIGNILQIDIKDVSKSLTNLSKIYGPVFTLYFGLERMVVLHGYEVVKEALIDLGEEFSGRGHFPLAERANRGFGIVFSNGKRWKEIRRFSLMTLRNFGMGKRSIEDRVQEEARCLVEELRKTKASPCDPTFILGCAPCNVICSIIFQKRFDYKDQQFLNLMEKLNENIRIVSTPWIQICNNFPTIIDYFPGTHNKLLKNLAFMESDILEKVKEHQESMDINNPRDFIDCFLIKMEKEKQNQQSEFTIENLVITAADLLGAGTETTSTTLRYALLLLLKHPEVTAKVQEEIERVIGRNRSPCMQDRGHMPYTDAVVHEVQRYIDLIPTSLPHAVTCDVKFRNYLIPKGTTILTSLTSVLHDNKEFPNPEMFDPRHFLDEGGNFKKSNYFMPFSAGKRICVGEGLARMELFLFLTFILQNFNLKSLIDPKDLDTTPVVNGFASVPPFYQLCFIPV

CYP2C9 = molecular target: T3, CYP2C9 (Homo sapiens, UniProt P11712)
T3 construct: recombinant CYP450, commercial (Research Institute for Liver Diseases, Shanghai); P450-Glo Screening System (Promega)
T3 sequence (P11712 whole entry): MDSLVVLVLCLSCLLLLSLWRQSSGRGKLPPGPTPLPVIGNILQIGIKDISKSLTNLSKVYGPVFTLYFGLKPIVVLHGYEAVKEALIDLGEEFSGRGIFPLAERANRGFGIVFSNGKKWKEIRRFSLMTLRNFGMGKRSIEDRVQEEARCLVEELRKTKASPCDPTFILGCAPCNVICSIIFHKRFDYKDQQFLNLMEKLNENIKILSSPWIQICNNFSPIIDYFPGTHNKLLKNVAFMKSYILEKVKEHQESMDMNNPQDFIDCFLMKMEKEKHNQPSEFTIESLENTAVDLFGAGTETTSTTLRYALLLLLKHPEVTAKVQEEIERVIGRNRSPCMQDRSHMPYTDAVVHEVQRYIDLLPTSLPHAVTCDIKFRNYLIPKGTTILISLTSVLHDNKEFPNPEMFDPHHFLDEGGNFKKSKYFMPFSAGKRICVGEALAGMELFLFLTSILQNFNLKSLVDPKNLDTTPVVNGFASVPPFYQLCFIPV

CYP1A2 = molecular target: T4, CYP1A2 (Homo sapiens, UniProt P05177)
T4 construct: recombinant CYP450, commercial (Research Institute for Liver Diseases, Shanghai); P450-Glo Screening System (Promega)
T4 sequence (P05177 2-516): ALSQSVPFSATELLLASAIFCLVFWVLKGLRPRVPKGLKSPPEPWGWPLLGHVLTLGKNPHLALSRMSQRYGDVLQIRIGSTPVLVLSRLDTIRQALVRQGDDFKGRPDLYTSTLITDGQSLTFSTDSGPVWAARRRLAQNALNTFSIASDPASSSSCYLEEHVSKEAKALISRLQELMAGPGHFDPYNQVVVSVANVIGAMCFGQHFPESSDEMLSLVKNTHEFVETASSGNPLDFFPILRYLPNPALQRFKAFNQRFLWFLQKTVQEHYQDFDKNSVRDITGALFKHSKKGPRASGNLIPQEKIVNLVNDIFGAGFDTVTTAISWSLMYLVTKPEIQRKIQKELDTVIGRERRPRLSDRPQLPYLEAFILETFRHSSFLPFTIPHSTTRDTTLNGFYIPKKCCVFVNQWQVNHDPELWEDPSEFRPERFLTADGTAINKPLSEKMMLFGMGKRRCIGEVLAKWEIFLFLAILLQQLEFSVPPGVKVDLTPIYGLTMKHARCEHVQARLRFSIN

CYP3A4 = molecular target: T5, CYP3A4 (Homo sapiens, UniProt P08684); conditions: read-out: IC50 (μM) (95% Confidence Interval) / Isoimperatorin
T5 construct: recombinant CYP450, commercial (Research Institute for Liver Diseases, Shanghai); P450-Glo Screening System (Promega)
T5 sequence (P08684 2-503): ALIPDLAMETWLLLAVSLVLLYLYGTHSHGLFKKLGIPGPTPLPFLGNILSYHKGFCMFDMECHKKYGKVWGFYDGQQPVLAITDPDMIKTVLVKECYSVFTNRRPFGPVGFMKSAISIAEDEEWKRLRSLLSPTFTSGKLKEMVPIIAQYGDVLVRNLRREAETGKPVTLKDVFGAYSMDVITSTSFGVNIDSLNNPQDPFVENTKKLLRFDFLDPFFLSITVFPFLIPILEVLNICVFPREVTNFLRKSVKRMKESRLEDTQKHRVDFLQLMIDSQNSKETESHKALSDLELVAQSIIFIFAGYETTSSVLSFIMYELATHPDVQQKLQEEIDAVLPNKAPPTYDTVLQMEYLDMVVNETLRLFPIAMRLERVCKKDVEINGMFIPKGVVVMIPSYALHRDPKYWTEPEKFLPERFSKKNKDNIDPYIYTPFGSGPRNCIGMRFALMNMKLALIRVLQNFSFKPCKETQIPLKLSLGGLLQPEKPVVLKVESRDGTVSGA

[1] = read-out: IC50 (μM) (95% Confidence Interval) / Isoimperatorin

SMILES	IC50 (CYP2D6)	IC50 (CYP2C19)	IC50 (CYP2C9)	IC50 (CYP1A2)	IC50 (CYP2D6; [1])	IC50 (CYP2C19; [1])	IC50 (CYP2C9; [1])	IC50 (CYP1A2; [1])	IC50 (CYP3A4)
CC(C)=CCOc1c2occc2cc2ccc(=O)oc12 [imperatorin]	9.1 µM	83.3 µM	4.81 µM	0.08 µM					
CC(C)=CCOc1c2ccoc2cc2oc(=O)ccc12 [isoimperatorin]					1.56 µM	19.6 µM	5.69 µM	8.26 µM	1.47 µM
